Laboratory results published in US6875451B2, “Compositions and methods for the treatment of primary and metastatic neoplastic diseases using arsenic compounds” (PolaRx Biopharmaceuticals Inc., priority 1997, dated 2005).

Columns and labels:
Assay type in all cases: cell-based
EKVX = experiment: SRB growth assay, 6 days exposure, non-small cell lung cancer
Procedure: (§1) Arsenic trioxide (1 mg/ml, 10 mg/ampoule, manufactured by Taylor Pharmaceuticals, Decatur, Ill.) was tested at five concentrations each at 10-fold dilutions, i.e., 10^−5, 10^−6, 10^−7, 10^−8 and 10^−9 μg/ml.
(§2) The in vitro tests were performed by incubating the test cells in the presence of the indicated concentration of arsenic trioxide under standard culture conditions for a designated period of time, which is followed by a sulforhodamine B (SRB) protein assay to estimate cell viability or growth. The cell lines are organized into subpanels according to the origin of the cell lines, e.g., leukemia, breast cancer, etc. A description of the cell lines and method of testing is described in Monk et al. (1997, Anticancer Drug Des. 12:533-41) and Weinstein et al., (1997, Science 275:343-9), which are incorporated herein in their entirety.
(§3) The measurement of an effect is expressed in Percentage Growth (PG). The measured effect of the compound on a cell line is calculated according to one or the other of the following two expressions: If (Mean ODtest−Mean ODzero)≧0. then PG=100×(Mean ODtest−Mean ODzero)/(Mean ODctrl−Mean ODzero) If (Mean ODtest−Mean ODzero)<0. then PG=100×(Mean ODtest−Mean ODzero)/(Mean ODzero where: • Mean ODzero=the average of optical density measurements of SRB-derived color just before exposure of cells to the test compounds; • Mean ODtest=the average of optical density measurements of SRB-derived color after exposure of cells to the test compound for a designated period of time; and • Mean ODctrl=the average of optical density measurements of SRB-derived color after with no exposure of cells to the test compound for a designated period of time
(§4) The first two columns describe the subpanel (e.g., leukemia) and cell line (e.g., CCRF-CEM) involved. The next two columns list the Mean ODzero and Mean ODctrl; the next five columns list the Mean ODtest for each of five different concentrations. Each concentration is expressed as the log10 (molar or μg/ml). The next five columns list the calculated PGs for each concentration. The response parameters GI50, TGI and LC50 are interpolated values representing the concentrations at which the PG is +50, 0, and −50, respectively. Sometimes these response parameters cannot be obtained by interpolation. If, for instance, all of the PGs in a given row exceed +50, then none of the three parameters can be obtained by interpolation. In such a case, the value given for each response parameter is the highest concentration tested and is preceded by a “>” sign. This practice is extended similarly to the other possible situations where a response parameter cannot be obtained by interpolation.
(§5) In the first set, the cells from 56 different cancer cell lines were exposed to five concentrations of arsenic trioxide continuously for two days prior to performing the SRB assay. In the second set, the cells from 50 different cell lines (a subset of the first 56 cell lines, plus the renal cancer cell line 786-0) were exposed continuously for six days prior to the SRB assay.

NCI-H226 = experiment: as above; conditions: NCI-H226, 6 days
Procedure: as §1, §2, §3, §4, §5

NCI-H460 = experiment: as above; conditions: NCI-H460, 6 days
Procedure: as §1, §2, §3, §4, §5

NCI-H322M = experiment: as above
Procedure: as §1, §2, §3, §4, §5

LOX IMVI = experiment: SRB growth assay, 6 days exposure, melanoma; conditions: LOX 1MVI
Procedure: as §1, §2, §3, §4, §5

SK-MEL-28 = experiment: SRB growth assay, 6 days exposure, melanoma; conditions: SK-MEL-28, 6 days
Procedure: as §1, §2, §3, §4, §5

UACC-257 = experiment: SRB growth assay, 6 days exposure, melanoma; conditions: UACC-257, 6 days
Procedure: as §1, §2, §3, §4, §5

DU-145 = experiment: SRB growth assay, 6 days exposure, prostate cancer; conditions: DU-145, 6 days
Procedure: as §1, §2, §3, §4, §5

[1] = read-out: LC50 (the source's name)

arsenic trioxide
TGI (EKVX): 4.22E−06 | Mean Optical Densities (EKVX; Log 10 Concentration −4.9): 0.014 | Percent Growth (EKVX; Log 10 Concentration −4.9): −53% | Mean Optical Densities (EKVX; Log 10 Concentration −5.9): 0.414 | Percent Growth (EKVX; Log 10 Concentration −5.9): 59% | Mean Optical Densities (EKVX; Log 10 Concentration −6.9): 0.628 | Percent Growth (EKVX; Log 10 Concentration −6.9): 92% | Mean Optical Densities (EKVX; Log 10 Concentration −7.9): 0.601 | Percent Growth (EKVX; Log 10 Concentration −7.9): 88% | Mean Optical Densities (EKVX; Log 10 Concentration −8.9): 0.573 | Percent Growth (EKVX; Log 10 Concentration −8.9): 83% | Mean Optical Densities (NCI-H226; Log 10 Concentration −4.9): 0.164 | Percent Growth (NCI-H226; Log 10 Concentration −4.9): 17% | Mean Optical Densities (NCI-H226; Log 10 Concentration −5.9): 0.348 | Percent Growth (NCI-H226; Log 10 Concentration −5.9): 63% | Mean Optical Densities (NCI-H226; Log 10 Concentration −6.9): 0.489 | Percent Growth (NCI-H226; Log 10 Concentration −6.9): 98% | Mean Optical Densities (NCI-H226; Log 10 Concentration −7.9): 0.458 | Percent Growth (NCI-H226; Log 10 Concentration −7.9): 90% | Mean Optical Densities (NCI-H226; Log 10 Concentration −8.9): 0.504 | Percent Growth (NCI-H226; Log 10 Concentration −8.9): 101% | CC50 (NCI-H226; [1]): > 12.6 µM | Mean Optical Densities (NCI-H460; Log 10 Concentration −4.9): 0.062 | Percent Growth (NCI-H460; Log 10 Concentration −4.9): 1% | Mean Optical Densities (NCI-H460; Log 10 Concentration −5.9): 2.535 | Percent Growth (NCI-H460; Log 10 Concentration −5.9): 89% | Mean Optical Densities (NCI-H460; Log 10 Concentration −6.9): 2.792 | Percent Growth (NCI-H460; Log 10 Concentration −6.9): 98% | Mean Optical Densities (NCI-H460; Log 10 Concentration −7.9): 2.806 | Percent Growth (NCI-H460; Log 10 Concentration −7.9): 99% | Mean Optical Densities (NCI-H460; Log 10 Concentration −8.9): 2.797 | Percent Growth (NCI-H460; Log 10 Concentration −8.9): 99% | CC50 (NCI-H460; [1]): > 12.6 µM | Mean Optical Densities (NCI-H322M; Log 10 Concentration −4.9): 0.054 | Percent Growth (NCI-H322M; Log 10 Concentration −4.9): 3% | Mean Optical Densities (NCI-H322M; Log 10 Concentration −5.9): 0.552 | Percent Growth (NCI-H322M; Log 10 Concentration −5.9): 77% | Mean Optical Densities (NCI-H322M; Log 10 Concentration −6.9): 0.674 | Percent Growth (NCI-H322M; Log 10 Concentration −6.9): 96% | Mean Optical Densities (NCI-H322M; Log 10 Concentration −7.9): 0.620 | Percent Growth (NCI-H322M; Log 10 Concentration −7.9): 88% | Mean Optical Densities (NCI-H322M; Log 10 Concentration −8.9): 0.680 | Percent Growth (NCI-H322M; Log 10 Concentration −8.9): 97% | CC50 (NCI-H322M; [1]): > 12.6 µM | TGI (LOX IMVI): 1.32E−07 | Mean Optical Densities (LOX IMVI; Log 10 Concentration −4.9): −0.001 | Percent Growth (LOX IMVI; Log 10 Concentration −4.9): −100% | Mean Optical Densities (LOX IMVI; Log 10 Concentration −5.9): 0.002 | Percent Growth (LOX IMVI; Log 10 Concentration −5.9): −88% | Mean Optical Densities (LOX IMVI; Log 10 Concentration −6.9): 0.053 | Percent Growth (LOX IMVI; Log 10 Concentration −6.9): 2% | Mean Optical Densities (LOX IMVI; Log 10 Concentration −7.9): 1.666 | Percent Growth (LOX IMVI; Log 10 Concentration −7.9): 77% | Mean Optical Densities (LOX IMVI; Log 10 Concentration −8.9): 2.000 | Percent Growth (LOX IMVI; Log 10 Concentration −8.9): 93% | TGI (SK-MEL-28): 1.86E−06 | Percent Growth (SK-MEL-28; Log 10 Concentration −4.9): −100% | Mean Optical Densities (SK-MEL-28; Log 10 Concentration −5.9): 0.488 | Percent Growth (SK-MEL-28; Log 10 Concentration −5.9): 20% | Mean Optical Densities (SK-MEL-28; Log 10 Concentration −6.9): 1.797 | Percent Growth (SK-MEL-28; Log 10 Concentration −6.9): 88% | Mean Optical Densities (SK-MEL-28; Log 10 Concentration −7.9): 1.906 | Percent Growth (SK-MEL-28; Log 10 Concentration −7.9): 94% | Mean Optical Densities (SK-MEL-28; Log 10 Concentration −8.9): 2.012 | Percent Growth (SK-MEL-28; Log 10 Concentration −8.9): 99% | TGI (UACC-257): 5.83E−06 | Mean Optical Densities (UACC-257; Log 10 Concentration −4.9): 0.039 | Percent Growth (UACC-257; Log 10 Concentration −4.9): −27% | Mean Optical Densities (UACC-257; Log 10 Concentration −5.9): 0.504 | Percent Growth (UACC-257; Log 10 Concentration −5.9): 54% | Mean Optical Densities (UACC-257; Log 10 Concentration −6.9): 0.832 | Percent Growth (UACC-257; Log 10 Concentration −6.9): 94% | Mean Optical Densities (UACC-257; Log 10 Concentration −7.9): 0.857 | Percent Growth (UACC-257; Log 10 Concentration −7.9): 97% | Mean Optical Densities (UACC-257; Log 10 Concentration −8.9): 0.872 | Percent Growth (UACC-257; Log 10 Concentration −8.9): 99% | CC50 (UACC-257; [1]): > 12.6 µM | TGI (DU-145): 6.32E−06 | Mean Optical Densities (DU-145; Log 10 Concentration −4.9): 0.055 | Percent Growth (DU-145; Log 10 Concentration −4.9): −43% | Mean Optical Densities (DU-145; Log 10 Concentration −5.9): 2.153 | Percent Growth (DU-145; Log 10 Concentration −5.9): 100% | Mean Optical Densities (DU-145; Log 10 Concentration −6.9): 1.935 | Percent Growth (DU-145; Log 10 Concentration −6.9): 89% | Mean Optical Densities (DU-145; Log 10 Concentration −7.9): 1.954 | Percent Growth (DU-145; Log 10 Concentration −7.9): 90% | Mean Optical Densities (DU-145; Log 10 Concentration −8.9): 2.147 | Percent Growth (DU-145; Log 10 Concentration −8.9): 99% | CC50 (DU-145; [1]): > 12.6 µM
